Key:
[1] = target: Cyclin-dependent kinase 4 (Homo sapiens, UniProt P11802); test: Inhibition of CDK4 by radioactive glutathione plate-binding assay
[2] = target: Glycogen synthase kinase-3 beta (Homo sapiens, UniProt P49841); test: Inhibition of GSK3-beta by scintillation proximity assay
[3] = target: Cyclin-dependent kinase 2 (Homo sapiens, UniProt P24941); test: Inhibition of human CDK2 by HTRF assay
Mus musculus [4] = test: Dose normalized AUC in orally dosed mouse; type: ADME, organism-based; settings: in vivo, po
[5] = target: Vascular endothelial growth factor receptor 2 (Homo sapiens, UniProt P35968); test: Inhibition of VEGFR2 by HTRF assay
[6] = Metabolic stability at mouse liver S9 fraction after 60 mins; type: ADME, subcellular; settings: read-out: Stability
Mus musculus [7] = test: Dose normalized AUC in ip dosed mouse; type: ADME, organism-based; settings: in vivo

Sequence of Cyclin-dependent kinase 4 (P11802 whole entry): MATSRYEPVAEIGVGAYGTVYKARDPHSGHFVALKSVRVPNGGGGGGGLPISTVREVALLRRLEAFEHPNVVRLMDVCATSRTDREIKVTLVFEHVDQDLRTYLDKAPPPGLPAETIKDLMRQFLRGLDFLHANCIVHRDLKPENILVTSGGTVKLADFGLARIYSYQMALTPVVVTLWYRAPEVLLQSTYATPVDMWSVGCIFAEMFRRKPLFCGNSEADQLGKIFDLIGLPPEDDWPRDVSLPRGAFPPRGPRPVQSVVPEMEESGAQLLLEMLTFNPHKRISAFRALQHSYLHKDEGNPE
Sequence of Vascular endothelial growth factor receptor 2 (P35968 whole entry): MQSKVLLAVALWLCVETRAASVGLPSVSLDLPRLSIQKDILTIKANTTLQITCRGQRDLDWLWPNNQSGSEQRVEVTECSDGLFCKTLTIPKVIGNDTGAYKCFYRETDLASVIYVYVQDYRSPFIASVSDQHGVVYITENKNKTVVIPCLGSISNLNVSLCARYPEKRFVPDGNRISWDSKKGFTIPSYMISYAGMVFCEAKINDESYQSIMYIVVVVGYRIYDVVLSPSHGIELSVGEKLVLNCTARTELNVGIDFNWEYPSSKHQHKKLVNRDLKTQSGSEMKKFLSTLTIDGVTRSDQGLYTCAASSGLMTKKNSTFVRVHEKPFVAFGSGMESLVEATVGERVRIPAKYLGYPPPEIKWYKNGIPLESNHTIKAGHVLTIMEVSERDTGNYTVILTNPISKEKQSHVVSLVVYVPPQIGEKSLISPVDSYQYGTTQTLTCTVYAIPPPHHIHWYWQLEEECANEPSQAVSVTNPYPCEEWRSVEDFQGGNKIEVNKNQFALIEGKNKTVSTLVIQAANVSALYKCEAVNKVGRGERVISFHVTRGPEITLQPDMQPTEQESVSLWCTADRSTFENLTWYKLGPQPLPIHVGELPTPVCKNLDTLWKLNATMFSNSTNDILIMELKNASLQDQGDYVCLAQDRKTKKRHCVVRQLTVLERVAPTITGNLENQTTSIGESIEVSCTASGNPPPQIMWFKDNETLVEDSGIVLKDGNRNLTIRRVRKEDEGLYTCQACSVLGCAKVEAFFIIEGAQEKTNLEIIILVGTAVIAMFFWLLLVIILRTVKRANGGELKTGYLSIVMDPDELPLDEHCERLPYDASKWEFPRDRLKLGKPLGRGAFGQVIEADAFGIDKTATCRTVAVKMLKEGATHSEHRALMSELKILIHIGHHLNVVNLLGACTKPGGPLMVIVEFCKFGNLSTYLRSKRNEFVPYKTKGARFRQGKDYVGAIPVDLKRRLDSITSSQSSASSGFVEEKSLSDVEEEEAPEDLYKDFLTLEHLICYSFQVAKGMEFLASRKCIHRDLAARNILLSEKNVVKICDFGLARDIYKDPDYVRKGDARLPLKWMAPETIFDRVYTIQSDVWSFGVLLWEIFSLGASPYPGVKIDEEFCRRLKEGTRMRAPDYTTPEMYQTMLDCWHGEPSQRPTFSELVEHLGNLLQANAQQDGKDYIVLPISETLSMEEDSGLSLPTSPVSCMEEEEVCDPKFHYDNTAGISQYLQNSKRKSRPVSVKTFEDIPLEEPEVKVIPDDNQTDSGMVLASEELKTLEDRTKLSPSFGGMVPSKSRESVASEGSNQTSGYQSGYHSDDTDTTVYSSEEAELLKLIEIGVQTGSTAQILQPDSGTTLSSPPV
Sequence of Glycogen synthase kinase-3 beta (P49841 whole entry): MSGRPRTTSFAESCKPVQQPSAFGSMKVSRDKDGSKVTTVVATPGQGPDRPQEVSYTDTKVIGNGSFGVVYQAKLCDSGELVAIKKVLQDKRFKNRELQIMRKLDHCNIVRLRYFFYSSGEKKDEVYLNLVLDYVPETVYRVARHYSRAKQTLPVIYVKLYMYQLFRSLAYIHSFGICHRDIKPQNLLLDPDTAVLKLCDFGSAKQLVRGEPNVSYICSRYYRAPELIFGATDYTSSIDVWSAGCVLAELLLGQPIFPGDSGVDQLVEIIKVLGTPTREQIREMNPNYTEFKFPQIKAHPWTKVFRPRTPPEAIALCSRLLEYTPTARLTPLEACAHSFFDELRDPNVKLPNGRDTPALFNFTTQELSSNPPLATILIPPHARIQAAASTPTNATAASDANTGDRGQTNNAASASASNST

Row | SMILES | IC50 [1] [nM] | IC50 [2] [nM] | IC50 [3] [nM] | also measured
1 | O=[N+]([O-])c1ccc(Nc2nccc(-c3cnn4ncccc34)n2)cc1 | 8 | 5 | 3 | –
2 | N#Cc1ccc(Nc2nccc(-c3cnn4ncccc34)n2)cc1 | 25 | 5 | 2 | –
3 | CC(C)Oc1ccc2c(-c3ccnc(NC4CC4)n3)cnn2n1 | 1600 | 25000 | – | AUC (Mus musculus [4]): > 1000 ng·kg·h/mg/mL
4 | CCCCc1nn2ncccc2c1-c1ccnc(NC2CC2)n1 | > 40000 | – | – | IC50 [5]: 2500 nM
5 | CN1CCN(c2ccc(Nc3nccc(-c4cnn5ncccc45)n3)cc2)CC1 | 12 | 200 | 100 | IC50 [5]: 400 nM
6 | Fc1ccc(-c2ccc3c(-c4ccnc(NC5CC5)n4)cnn3n2)cc1 | 250 | > 32000 | – | –
7 | CCN(CC)CCNC(=O)c1cccc(Nc2nccc(-c3cnn4ncccc34)n2)c1 | 8 | 20 | 40 | –
8 | CC(C)Oc1ccc2c(-c3ccnc(Nc4ccc(N5CCN(C)CC5)cc4)n3)cnn2n1 | 45 | 850 | 230 | –
9 | CCc1nn2ncccc2c1-c1ccnc(Nc2ccc(N3CCN(C)CC3)cc2)n1 | 25 | – | – | IC50 [5]: 63 nM
10 | CCCCc1nn2ncccc2c1-c1ccnc(Nc2ccc(N3CCN(C)CC3)cc2)n1 | 800 | – | – | IC50 [5]: 25 nM
11 | c1cc(-c2cnn3nc(NC4CCCC4)ccc23)nc(NC2CC2)n1 | 160 | 25000 | – | –
12 | C=Cc1ccc2c(-c3ccnc(NC4CC4)n3)cnn2n1 | 200 | 3200 | – | –
13 | c1cc(-c2cnn3nc(N4CCCC4)ccc23)nc(NC2CC2)n1 | 500 | 25000 | – | –
14 | Oc1ccc2c(-c3ccnc(NC4CC4)n3)cnn2n1 | 1300 | 25000 | – | –
15 | c1cc(Nc2nccc(-c3cnn4ncccc34)n2)cc(-c2cocn2)c1 | 16 | 8 | 3 | –
16 | Cc1nn2ncccc2c1-c1ccnc(NC2CC2)n1 | 800 | – | – | IC50 [5]: > 20000 nM
17 | c1csc(-c2ccc3c(-c4ccnc(NC5CC5)n4)cnn3n2)c1 | 250 | > 32000 | – | –

Row | SMILES | IC50 [1] [nM] | IC50 [2] [nM] | IC50 [3] [nM] | also measured
18 | CCN(CC)Cc1cccc(Nc2nccc(-c3cnn4ncccc34)n2)c1 | 12 | 79 | 50 | –
19 | CN(C)CC(O)COc1ccc(Nc2nccc(-c3cnn4nc(N5CCOCC5)ccc34)n2)cc1 (stereo not given) | 38 | – | – | remaining at 1 h [6]: 46%; AUC (Mus musculus [7]): > 7000 ng·kg·h/mg/mL
20 | CN1CCN(c2ccc(Nc3nccc(-c4cnn5nc(-c6ccc(F)cc6)ccc45)n3)cc2)CC1 | 26 | > 25000 | 740 | –
21 | NC(=O)c1ccc(Nc2nccc(-c3cnn4ncccc34)n2)cc1 | 160 | 20 | 16 | –
22 | COc1ccc2c(-c3ccnc(NC4CC4)n3)cnn2n1 | 2000 | 25000 | – | –
23 | O=C(O)c1ccc(Nc2nccc(-c3cnn4ncccc34)n2)cc1 | 790 | 50 | 40 | –
24 | Cc1nn2ncccc2c1-c1ccnc(Nc2ccc(N3CCN(C)CC3)cc2)n1 | 50 | – | – | IC50 [5]: 63 nM
25 | c1cnn2ncc(-c3ccnc(NC4CC4)n3)c2c1 | 80 | – | – | IC50 [5]: > 20000 nM; remaining at 1 h [6]: 85%
26 | O=[N+]([O-])c1cccc(Nc2nccc(-c3cnn4ncccc34)n2)c1 | 0.3 | – | 0.3 | –
27 | FC(F)(F)CNc1nccc(-c2cnn3ncccc23)n1 [GW683003X] | 1000 | > 32000 | 1000 | –
28 | c1cnn2ncc(-c3ccnc(NCCCN4CCOCC4)n3)c2c1 [GW683109X] | 3200 | – | – | –
29 | CCc1nn2ncccc2c1-c1ccnc(NC2CC2)n1 [GW683768X] | 2000 | – | – | IC50 [5]: 3200 nM
30 | c1cc(-c2cnn3nc(N4CCOCC4)ccc23)nc(NC2CC2)n1 [GW708336X] | 400 | – | – | AUC (Mus musculus [4]): > 1000 ng·kg·h/mg/mL
31 | N#Cc1cccc(Nc2nccc(-c3cnn4ncccc34)n2)c1 [GW778894X] | 4 | – | 2 | –
32 | Clc1ccc(CNc2nccc(-c3cnn4ncccc34)n2)cc1 [GW781673X] | 1000 | – | 1000 | –
33 | CC(C)c1ccc(Nc2nccc(-c3cnn4ncccc34)n2)cc1 [GW805758X] | – | 16 | 40 | –

Source: ChEMBL document CHEMBL1143431, “Synthesis and evaluation of pyrazolo[1,5-b]pyridazines as selective cyclin dependent kinase inhibitors” (Bioorg Med Chem Lett, 2008)
